{"source": "paper PMC4114983", "about": "“The “Gate Keeper” Role of Trp222 Determines the Enantiopreference of Diketoreductase toward 2-Chloro-1-Phenylethanone” (PLoS ONE, 2014)", "key": {"[1]": {"molecular_target": "T1, diketoreductase (DKR) (Acinetobacter baylyi, UniProt B1P3E1, W222L)", "T1 construct": "full-length in pET22b(+), E. coli BL21(DE3); DEAE and Sephadex G-100 purified; homodimer, 283 residues per subunit", "T1 sequence (B1P3E1 entry or part of it W222L)": "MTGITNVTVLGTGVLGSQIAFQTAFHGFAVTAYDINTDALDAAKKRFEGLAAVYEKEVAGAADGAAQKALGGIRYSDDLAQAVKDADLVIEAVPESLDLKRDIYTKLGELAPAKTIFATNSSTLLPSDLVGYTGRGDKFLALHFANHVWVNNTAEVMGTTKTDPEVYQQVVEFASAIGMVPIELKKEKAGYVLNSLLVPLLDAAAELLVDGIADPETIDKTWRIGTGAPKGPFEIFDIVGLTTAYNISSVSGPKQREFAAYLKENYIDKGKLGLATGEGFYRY", "assay": "NADH oxidation, absorbance", "assay_type": "biochemical", "settings": "0.15 mM NADH constant, potassium phosphate pH 6.0; average of two measurements", "source_text": "(§1) NADH oxidation, absorbance on WT-DKR; diketoreductase (DKR)"}, "[2]": {"molecular_target": "T2, WT-DKR; diketoreductase (DKR) (Acinetobacter baylyi, UniProt B1P3E1, W222F)", "T2 construct": "full-length in pET22b(+), E. coli BL21(DE3); DEAE and Sephadex G-100 purified; homodimer, 283 residues per subunit", "T2 sequence (B1P3E1 entry or part of it W222F)": "as the sequence (B1P3E1 entry or part of it W222L) above", "assay": "NADH oxidation, absorbance", "assay_type": "biochemical", "settings": "0.15 mM NADH constant, potassium phosphate pH 6.0; average of two measurements", "source_text": "as §1"}, "[3]": {"molecular_target": "T3, diketoreductase (DKR) (Acinetobacter baylyi, UniProt B1P3E1, W222V)", "T3 construct": "full-length in pET22b(+), E. coli BL21(DE3); DEAE and Sephadex G-100 purified; homodimer, 283 residues per subunit", "T3 sequence (B1P3E1 entry or part of it W222V)": "as the sequence (B1P3E1 entry or part of it W222L) above", "assay": "NADH oxidation, absorbance", "assay_type": "biochemical", "settings": "0.15 mM NADH constant, potassium phosphate pH 6.0; average of two measurements", "source_text": "as §1"}, "[4]": {"molecular_target": "T4, diketoreductase (DKR) (Acinetobacter baylyi, UniProt B1P3E1, W222Y)", "T4 construct": "full-length in pET22b(+), E. coli BL21(DE3); DEAE and Sephadex G-100 purified; homodimer, 283 residues per subunit", "T4 sequence (B1P3E1 entry or part of it W222Y)": "as the sequence (B1P3E1 entry or part of it W222L) above", "assay": "NADH oxidation, absorbance", "assay_type": "biochemical", "settings": "0.15 mM NADH constant, potassium phosphate pH 6.0; average of two measurements", "source_text": "as §1"}, "[5]": {"molecular_target": "T5, WT-DKR; diketoreductase (DKR) (Acinetobacter baylyi, UniProt B1P3E1)", "T5 construct": "full-length in pET22b(+), E. coli BL21(DE3); DEAE and Sephadex G-100 purified; homodimer, 283 residues per subunit", "assay": "NADH oxidation, absorbance", "assay_type": "biochemical", "settings": "0.15 mM NADH constant, potassium phosphate pH 6.0; average of two measurements", "source_text": "as §1"}, "[6]": {"molecular_target": "T6, WT-DKR; diketoreductase (DKR) (Acinetobacter baylyi, UniProt B1P3E1, W222M)", "T6 construct": "full-length in pET22b(+), E. coli BL21(DE3); DEAE and Sephadex G-100 purified; homodimer, 283 residues per subunit", "T6 sequence (B1P3E1 entry or part of it W222M)": "as the sequence (B1P3E1 entry or part of it W222L) above", "assay": "NADH oxidation, absorbance", "assay_type": "biochemical", "settings": "0.15 mM NADH constant, potassium phosphate pH 6.0; average of two measurements", "source_text": "as §1"}, "[7]": {"molecular_target": "T7, diketoreductase (DKR) (Acinetobacter baylyi, UniProt B1P3E1, W222M)", "T7 construct": "full-length in pET22b(+), E. coli BL21(DE3); DEAE and Sephadex G-100 purified; homodimer, 283 residues per subunit", "T7 sequence (B1P3E1 entry or part of it W222M)": "as the sequence (B1P3E1 entry or part of it W222L) above", "assay": "intrinsic Trp fluorescence quenching, quadratic fit", "assay_type": "binding", "source_text": "(§2) intrinsic Trp fluorescence quenching, quadratic fit on WT-DKR; diketoreductase (DKR)"}, "[8]": {"molecular_target": "T3, diketoreductase (DKR)", "assay": "intrinsic Trp fluorescence quenching, quadratic fit", "assay_type": "binding", "source_text": "as §2"}, "[9]": {"molecular_target": "T8, diketoreductase (DKR) (Acinetobacter baylyi, UniProt B1P3E1, W222F)", "T8 construct": "full-length in pET22b(+), E. coli BL21(DE3); DEAE and Sephadex G-100 purified; homodimer, 283 residues per subunit", "T8 sequence (B1P3E1 entry or part of it W222F)": "as the sequence (B1P3E1 entry or part of it W222L) above", "assay": "intrinsic Trp fluorescence quenching, quadratic fit", "assay_type": "binding", "source_text": "as §2"}, "[10]": {"molecular_target": "T4, diketoreductase (DKR)", "assay": "intrinsic Trp fluorescence quenching, quadratic fit", "assay_type": "binding", "source_text": "as §2"}, "[11]": {"molecular_target": "T5, WT-DKR; diketoreductase (DKR)", "assay": "intrinsic Trp fluorescence quenching, quadratic fit", "assay_type": "binding", "source_text": "as §2"}, "[12]": {"molecular_target": "T5, WT-DKR; diketoreductase (DKR)", "assay": "intrinsic Trp fluorescence quenching, quadratic fit", "assay_type": "binding", "source_text": "as §2", "remark": "listed apart in the source"}}, "note": "Read-outs that look alike come from different tables or passages of the source."}
{"smiles": "O=C(CCl)c1ccccc1", "note": "[2-chloro-1-phenylethanone]", "values": [{"measurement": "Km", "setting": "[1]", "value": 3160, "unit": "µM"}, {"measurement": "Km", "setting": "[2]", "value": 4180, "unit": "µM"}, {"measurement": "Km", "setting": "[3]", "value": 302, "unit": "µM"}, {"measurement": "Km", "setting": "[4]", "value": 2510, "unit": "µM"}, {"measurement": "Km", "setting": "[5]", "value": 1130, "unit": "µM"}, {"measurement": "Km", "setting": "[6]", "value": 2800, "unit": "µM"}, {"measurement": "Kd", "setting": "[7]", "value": 457, "unit": "µM"}, {"measurement": "Kd", "setting": "[8]", "value": 507, "unit": "µM"}, {"measurement": "Kd", "setting": "[9]", "value": 484, "unit": "µM"}, {"measurement": "Kd", "setting": "[10]", "value": 455, "unit": "µM"}, {"measurement": "Kd", "setting": "[11]", "value": 458, "unit": "µM"}, {"measurement": "Kd", "setting": "[12]", "value": 460, "unit": "µM"}]}
